Test results: US10112929B2, “Lactams as inhibitors of rock” (BRISTOL-MYERS SQUIBB COMPANY, priority 2015, dated 2018)
Counter-ions that a name gives are not always drawn.

The compounds below were run against ROCK2 (Homo sapiens (Human), UniProt O75116) (assay: biochemical).
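Note: rho kinase enzyme reaction halted with EDTA, phospho- and non-phospho peptide separated for read-out, kinase activity inhibition derived across a dose-response series, DMSO under 2%.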

Sequence of ROCK2 (O75116 whole entry, species assumed): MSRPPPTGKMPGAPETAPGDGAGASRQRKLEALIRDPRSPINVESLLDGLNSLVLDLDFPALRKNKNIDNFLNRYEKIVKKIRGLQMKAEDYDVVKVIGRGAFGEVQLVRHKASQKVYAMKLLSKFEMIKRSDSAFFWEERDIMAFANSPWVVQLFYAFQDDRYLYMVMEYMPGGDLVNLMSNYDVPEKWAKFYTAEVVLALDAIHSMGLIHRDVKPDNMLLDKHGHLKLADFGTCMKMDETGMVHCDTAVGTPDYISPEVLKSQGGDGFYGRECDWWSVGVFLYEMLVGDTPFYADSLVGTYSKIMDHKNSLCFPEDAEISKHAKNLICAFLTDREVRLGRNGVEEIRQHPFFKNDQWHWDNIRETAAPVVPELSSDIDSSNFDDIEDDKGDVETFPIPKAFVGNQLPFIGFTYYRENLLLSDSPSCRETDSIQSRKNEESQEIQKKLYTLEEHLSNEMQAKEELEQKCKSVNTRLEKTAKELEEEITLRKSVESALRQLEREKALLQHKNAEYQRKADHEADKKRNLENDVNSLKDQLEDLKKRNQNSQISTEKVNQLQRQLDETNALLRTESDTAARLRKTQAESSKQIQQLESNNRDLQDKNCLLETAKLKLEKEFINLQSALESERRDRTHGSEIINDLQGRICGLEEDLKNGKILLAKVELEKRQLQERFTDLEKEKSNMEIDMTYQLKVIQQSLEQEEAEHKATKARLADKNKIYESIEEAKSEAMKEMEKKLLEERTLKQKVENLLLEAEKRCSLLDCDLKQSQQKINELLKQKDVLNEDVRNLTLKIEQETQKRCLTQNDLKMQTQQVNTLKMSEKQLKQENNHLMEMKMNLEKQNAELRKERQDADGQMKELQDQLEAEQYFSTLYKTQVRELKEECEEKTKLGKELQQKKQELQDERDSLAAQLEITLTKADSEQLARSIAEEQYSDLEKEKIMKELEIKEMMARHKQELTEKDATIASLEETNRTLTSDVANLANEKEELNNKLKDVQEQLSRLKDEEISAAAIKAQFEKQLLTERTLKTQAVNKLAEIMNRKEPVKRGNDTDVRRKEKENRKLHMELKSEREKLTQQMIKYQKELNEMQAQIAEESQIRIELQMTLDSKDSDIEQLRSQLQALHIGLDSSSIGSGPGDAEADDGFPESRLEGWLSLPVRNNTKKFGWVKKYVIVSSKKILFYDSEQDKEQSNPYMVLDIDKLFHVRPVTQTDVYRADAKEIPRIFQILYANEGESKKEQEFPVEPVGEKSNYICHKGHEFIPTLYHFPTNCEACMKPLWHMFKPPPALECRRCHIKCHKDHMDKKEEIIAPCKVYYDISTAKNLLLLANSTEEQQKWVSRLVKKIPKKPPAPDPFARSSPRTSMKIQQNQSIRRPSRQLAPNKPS

| SMILES | IC50 [nM] |
| --- | --- |
| O=C1C(Nc2ccccc2)CCN1c1ccc(-c2cn[nH]c2)c(F)c1 (single isomer, unassigned) [Example 43, 1-(3-fluoro-4-(1H-pyrazol-4-yl)phenyl)-3-(phenylamino)pyrrolidin-2-one] | < 10 |
| COc1c(F)cccc1NC1CCN(c2ccc(-c3cn[nH]c3)c(OC(F)F)c2)C1=O (single isomer, unassigned) [Example 32, 1-(3-(difluoromethoxy)-4-(1H-pyrazol-4-yl)phenyl)-3-((3-fluoro-2-methoxyphenyl)amino)pyrrolidin-2-one] | 100 to 2200 |
| COc1ccc(NC2CCN(c3ccc(-c4cn[nH]c4)c(OC)c3)C2=O)cc1F (single isomer, unassigned) [Example 141, 3-((3-fluoro-4-methoxyphenyl)amino)-1-(3-methoxy-4-(1H-pyrazol-4-yl)phenyl) pyrrolidin-2-one] | 100 to 2200 |
| COc1ccc(NC2CCN(c3ccc(-c4cn[nH]c4)cc3F)C2=O)cc1F (single isomer, unassigned) [Example 344, 1-(2-fluoro-4-(1H-pyrazol-4-yl)phenyl)-3-((3-fluoro-4-methoxyphenyl)amino) pyrrolidin-2-one] | 100 to 2200 |
| COc1ccc(NC2CCN(c3ccc(-c4cn[nH]c4)c(OC)c3)C2=O)c(F)c1 (single isomer, unassigned) [Example 152, 3-((2-fluoro-4-methoxyphenyl)amino)-1-(3-methoxy-4-(1H-pyrazol-4-yl)phenyl) pyrrolidin-2-one] | 100 to 2200 |
| COc1nc(N2CCC(Nc3cnn(C(C)C)c3)C2=O)ccc1-c1cn[nH]c1 (racemic) [Example 272, 3-((1-isopropyl-1H-pyrazol-4-yl)amino)-1-(6-methoxy-5-(1H-pyrazol-4-yl)pyridin-2-yl)pyrrolidin-2-one] | 100 to 2200 |
| COc1cc(NC2CCN(c3ccc(-c4cn[nH]c4)c(F)c3F)C2=O)ccc1F (single isomer, unassigned) [Example 307, 1-(2,3-difluoro-4-(1H-pyrazol-4-yl)phenyl)-3-((4-fluoro-3-methoxyphenyl)amino)pyrrolidin-2-one] | 10 to 100 |
| O=C1[C@H](Nc2ccc3c(c2)CS(=O)(=O)C3)CCN1c1ccc(-c2cn[nH]c2)cc1 [Example 392, (R)-1-(4-(1H-pyrazol-4-yl)phenyl)-3-((2,2-dioxido-1,3-dihydrobenzo[c]thiophen-5-yl)amino)pyrrolidin-2-one] | 100 to 2200 |
| COc1cc(F)cc(OC2CCN(c3ccc(-c4cn[nH]c4)c(OC)n3)C2=O)c1 (single isomer, unassigned) [Example 172, 3-(3-fluoro-5-methoxyphenoxy)-1-(6-methoxy-5-(1H-pyrazol-4-yl)pyridin-2-yl)pyrrolidin-2-one] | 10 to 100 |
| O=C1C(Nc2cccc(OCC3CC3)c2)CCN1c1ccc(-c2cn[nH]c2)c(F)c1 (single isomer, unassigned) [Example 361, 3-((3-(cyclopropylmethoxy)phenyl)amino)-1-(3-fluoro-4-(1H-pyrazol-4-yl)phenyl)pyrrolidin-2-one] | < 10 |
| COc1cccc(NC2CCN(c3ccc(-c4cn[nH]c4)c(F)c3F)C2=O)c1 (single isomer, unassigned) [Example 305, 1-(2,3-difluoro-4-(1H-pyrazol-4-yl)phenyl)-3-((3-methoxyphenyl)amino) pyrrolidin-2-one] | 10 to 100 |
| COc1cc(NC2CCN(c3ccc(-c4cn[nH]c4)c(C(F)F)c3)C2=O)ccc1F (single isomer, unassigned) [Example 180, 1-(3-(difluoromethyl)-4-(1H-pyrazol-4-yl)phenyl)-3-((4-fluoro-3-methoxyphenyl)amino)pyrrolidin-2-one] | 100 to 2200 |
| COc1cccc(NC2CCN(c3ccc(-c4ccnc5[nH]ccc45)cc3)C2=O)c1 (single isomer, unassigned) [Example 81, 1-(4-(1H-pyrrolo[2,3-b]pyridin-4-yl)phenyl)-3-((3-methoxyphenyl)amino)pyrrolidin-2-one] | 10 to 100 |
| COc1cc(F)cc(NC2CCN(c3ccc(-c4cn[nH]c4)c(C#N)c3)C2=O)c1 (single isomer, unassigned) [Example 374, 5-(3-((3-fluoro-5-methoxyphenyl)amino)-2-oxopyrrolidin-1-yl)-2-(1H-pyrazol-4-yl)benzonitrile] | 100 to 2200 |
| CCc1cc(N2CCC(Nc3cc(F)cc(OC)c3)C2=O)ccc1-c1cn[nH]c1 (single isomer, unassigned) [Example 245, 1-(3-ethyl-4-(1H-pyrazol-4-yl)phenyl)-3-((3-fluoro-5-methoxyphenyl)amino) pyrrolidin-2-one] | 10 to 100 |
| COc1nc(N2CCC(Nc3cccc(-c4nnn[nH]4)c3)C2=O)ccc1-c1cn[nH]c1 (racemic) [Example 266, 3-((3-(1H-tetrazol-5-yl)phenyl)amino)-1-(6-methoxy-5-(1H-pyrazol-4-yl)pyridin-2-yl)pyrrolidin-2-one] | 10 to 100 |
| COc1cc(NC2CCN(c3ccc(-c4cn[nH]c4)cc3)C2=O)cc(OC)c1 (single isomer, unassigned) [Example 21, 1-(4-(1H-pyrazol-4-yl)phenyl)-3-((3,5-dimethoxyphenyl)amino)pyrrolidin-2-one] | 100 to 2200 |
| COc1nc(N2CCC(N3CCOCC3)C2=O)ccc1-c1cn[nH]c1 (racemic) [Example 273, 1-(6-methoxy-5-(1H-pyrazol-4-yl)pyridin-2-yl)-3-morpholinopyrrolidin-2-one] | 10 to 100 |
| COCc1cc(N2CCC(Nc3ccc(F)c(OC)c3)C2=O)ccc1-c1cn[nH]c1 (single isomer, unassigned) [Example 181, 3-((4-fluoro-3-methoxyphenyl)amino)-1-(3-(methoxymethyl)-4-(1H-pyrazol-4-yl)phenyl)pyrrolidin-2-one] | 100 to 2200 |
| COc1nc(N2CCC(Nc3cccc(NC(C)=O)c3)C2=O)ccc1-c1cn[nH]c1 (racemic) [Example 260, N-(3-((1-(6-methoxy-5-(1H-pyrazol-4-yl)pyridin-2-yl)-2-oxopyrrolidin-3-yl)amino)phenyl)acetamide] | < 10 |
| COc1cc(NC2CCN(c3ccc(-c4cn[nH]c4)cc3Cl)C2=O)ccc1F (single isomer, unassigned) [Example 162, 1-(2-chloro-4-(1H-pyrazol-4-yl)phenyl)-3-((4-fluoro-3-methoxyphenyl)amino) pyrrolidin-2-one] | 100 to 2200 |
| COc1nc(N2CCC(N3CCC(F)(F)C3)C2=O)ccc1-c1cn[nH]c1 (racemic) [Example 284, 3,3-difluoro-1′-(6-methoxy-5-(1H-pyrazol-4-yl)pyridin-2-yl)-[1,3′-bipyrrolidin]-2′-one hydrochloride] | 100 to 2200 |
| COc1nc(N2CCC(N3CCN(c4ccc(O)cc4)CC3)C2=O)ccc1-c1cn[nH]c1 (racemic) [Example 288, 3-(4-(44iydroxyphenyl)piperazin-1-yl)-1-(6-methoxy-5-(1H-pyrazol-4-yl)pyridin-2-yl)pyrrolidin-2-one] | 100 to 2200 |
| COc1cccc(N[C@@H]2CCN(c3ccc(-c4cn[nH]c4)cc3)C2=O)c1 [Example 383, (R)-1-(4-(1H-Pyrazol-4-yl)phenyl)-3-((3-methoxyphenyl)amino)pyrrolidin-2-one] | < 10 |
| COc1cc(F)cc(NC2CCN(c3ccc(-c4cn[nH]c4)c(F)c3F)C2=O)c1 (single isomer, unassigned) [Example 310, 1-(2,3-difluoro-4-(1H-pyrazol-4-yl)phenyl)-3-((3-fluoro-5-methoxyphenyl)amino)pyrrolidin-2-one] | < 10 |
